Values of other authors, collected in patent US20260102363A1, “TREATMENT METHOD AND ANTIFUNGAL COMPOSITION” (MOBERG PHARMA AB, priority 2020, published 2026).
Counter-ions that a name gives are not always drawn. Like-named read-outs stand apart in the source and are kept apart here.

What was measured:
[1] = test system: DSO
[2] = test system: onychomycosis
[3] = Study 1 of the prescribing information
[4] = Study 2 of the prescribing information
[5] = single reported study, hydrochloride

| Structure (SMILES) | Complete Cure (%) [1, 3] | Mycological Cure (%) [1, 3] | Complete Cure (%) [1, 4] | Mycological Cure (%) [1, 4] | Complete Cure (%) ([1]; single reported study) | Mycological Cure (%) ([1]; single reported study) | also measured |
| --- | --- | --- | --- | --- | --- | --- | --- |
| C=C1CCN([C@H](C)[C@](O)(Cn2cncn2)c2ccc(F)cc2F)CC1 [Efinaconazole (JUBLIA ®), efinaconazole] | 15.2% | 53.4% | 17.8% | 55.2% | – | – | – |
| CN(C/C=C/C#CC(C)(C)C)Cc1cccc2ccccc12 [Terbinafine (oral) (LAMISIL ®), terbinafine hydrochloride] | – | – | – | – | – | – | Complete Cure (%) [1, 5]: 38%; Mycological Cure (%) [1, 5]: 70%; mycological cure rate ([2]; after 12 weeks): ~15%; mycological cure rate ([2]; at 24 weeks): ~40%; mycological cure rate ([2]; at week 48/52): ~70% |
| OB1OCc2cc(F)ccc21 [Tavaborole (KERYDIN ®), tavaborole] | 6.5% | 31% | 9.1% | 35.9% | – | – | – |
| N#C/C(=C1/SC[C@@H](c2ccc(Cl)cc2Cl)S1)n1ccnc1 [Luliconazole] | – | – | – | – | 14.9% | 45.4% | – |
| CN(C/C=C/C#CC(C)(C)C)Cc1cccc2ccccc12 [Terbinafine (P3058), Terbinafine] | – | – | – | – | 5.7% | 20.4% | – |
| Cc1cc(C2CCCCC2)n(O)c(=O)c1 [Ciclopirox (Penlac ®), ciclopirox] | 5.5% | 29% | 8.5% | 36% | – | – | – |
